Assay results reported in US8580824B2, “Pyridin-4-yl derivatives as immunomodulating agents” (Actelion Pharmaceuticals Ltd., priority 2006, dated 2013).

biological target: recombinant human S1P1 receptor (Homo sapiens, UniProt P21453); assay: GTPγS assay to determine EC50 values; assay type: biochemical; details: agonistic activity; membrane preparations of CHO cells expressing recombinant human S1P1 receptor; 35S-GTPγS binding
Procedure: i) GTPγS assay to determine EC50 values
GTPγS binding assays are performed in 96 well microtiter plates (Nunc, 442587) in a final volume of 200 μl, using membrane preparations of CHO cells expressing recombinant human S1P1 receptor. Assay conditions are 20 mM Hepes (Fluka, 54461), 100 mM NaCl (Fluka, 71378), 5 mM MgCl2 (Fluka, 63064), 0.1% BSA (Calbiochem, 126609), 1 μM GDP (Sigma, G-7127), 2.5% DMSO (Fluka, 41644), 50 pM ^35S-GTPγS (Amersham Biosciences, SJ1320). The pH is 7.4. Test compounds are dissolved and diluted in 100% DMSO and pre-incubated at room temperature for 30 min in 150 μl of the above assay buffer, in the absence of ^35S-GTPγS. After addition of 50 μl of ^35S-GTPγS, the assay is incubated for 1 h at rt. The assay is terminated by transfer of the reaction mixture to a Multiscreen plate (Millipore, MAHFC1H60) using a cell harvester from Packard Biosciences, and the plates are washed with ice-cold 10 mM Na2HPO4/NaH2PO4 (70%/30%), dried, sealed at the bottom and, after addition of 25 μl MicroScint20 (Packard Biosciences, order#6013621), sealed on the top. Membrane-bound ^35S-GTPγS is measured with a TopCount from Packard Biosciences.
EC50 is the concentration of agonist inducing 50% of the maximal specific ^35S-GTPγS binding. Specific binding is determined by subtracting non-specific binding from maximal binding. Maximal binding is the amount of cpm bound to the Multiscreen plate in the presence of 10 μM of S1P. Non-specific binding is the amount of binding in the absence of an agonist in the assay.

Sequence of recombinant human S1P1 receptor (P21453 whole entry): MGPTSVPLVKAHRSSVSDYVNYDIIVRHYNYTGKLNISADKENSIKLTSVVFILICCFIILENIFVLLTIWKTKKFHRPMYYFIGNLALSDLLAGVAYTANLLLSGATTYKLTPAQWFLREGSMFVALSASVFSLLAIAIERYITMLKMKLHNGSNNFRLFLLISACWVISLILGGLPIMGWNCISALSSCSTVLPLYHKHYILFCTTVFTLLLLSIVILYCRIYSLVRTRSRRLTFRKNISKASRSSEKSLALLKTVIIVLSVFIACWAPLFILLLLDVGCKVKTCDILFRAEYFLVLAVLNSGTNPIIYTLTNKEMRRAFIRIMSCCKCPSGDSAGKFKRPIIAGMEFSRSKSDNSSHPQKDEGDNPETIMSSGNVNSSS

Compound	EC50
CCCc1cc(-c2nnc(-c3cc(C)c(OC[C@@H](O)CNC(=O)CO)c(C)c3)o2)cc(C)n1 [Example 111]	1.8 nM
CCCc1cc(-c2nc(-c3cc(C)c(O)c(CC)c3)no2)cc(C)n1 [Example 86]	5.6 nM
CCc1cc(-c2noc(-c3cc(CC(C)C)nc(OC)c3)n2)cc(C)c1OC[C@@H](O)CNC(=O)CO [Example 226]	0.9 nM
Cc1cc(-c2noc(-c3cc(Cl)nc(CC(C)C)c3)n2)cc(C)c1OCC(O)CO (racemic) [Example 4, (RS)-3-{4-[5-(2-Chloro-6-isobutyl-pyridin-4-yl)-[1,2,4]oxadiazol-3-yl]-2,6-dimethyl-phenoxy}-propane-1,2-diol]	0.7 nM
Cc1cc(-c2noc(-c3cc(Cl)nc(OC(C)C)c3)n2)cc(C)c1OCC(O)CNC(=O)CO (racemic) [Example 26, N-((RS)-3-{4-[5-(2-Chloro-6-isopropoxy-pyridin-4-yl)-[1,2,4]oxadiazol-3-yl]-2,6-dimethyl-phenoxy}-2-hydroxy-propyl)-2-hydroxy-acetamide]	0.4 nM
CCOc1cc(-c2nc(-c3cc(C)c(OCC(O)CO)c(C)c3)no2)cc(C)n1 (racemic) [Example 27, (RS)-3-{4-[5-(2-Ethoxy-6-methyl-pyridin-4-yl)-[1,2,4]oxadiazol-3-yl]-2,6-dimethyl-phenoxy}-propane-1,2-diol]	2.5 nM
CCc1cc(-c2noc(-c3cc(C)c(OC[C@@H](O)CNC(=O)CO)c(CC)c3)n2)cc(C)n1 [Example 74]	4.3 nM
CCc1cc(-c2noc(-c3cc(C)nc(C(CC)CC)c3)n2)cc(C)c1OC[C@@H](O)CO [Example 196]	0.6 nM
Cc1cc(-c2nc(-c3cc(C)c(OCC(O)CNC(=O)CO)c(C)c3)no2)cc(CC(C)C)n1 (racemic) [Example 11, 2-Hydroxy-N-((RS)-2-hydroxy-3-{4-[5-(2-isobutyl-6-methyl-pyridin-4-yl)-[1,2,4]oxadiazol-3-yl]-2,6-dimethyl-phenoxy}-propyl)-acetamide]	0.2 nM
Cc1cc(-c2nc(-c3cc(C)c(OCC(O)CNC(=O)CO)c(Cl)c3)no2)cc(CC(C)C)n1 (centres unmarked) [Example 145]	0.2 nM
CCc1cc(-c2ncc(-c3cc(C)nc(CC(C)C)c3)o2)cc(C)c1OC[C@@H](O)CO [Example 235, (S)-3-{2-Ethyl-4-[5-(2-isobutyl-6-methyl-pyridin-4-yl)-oxazol-2-yl]-6-methyl-phenoxy}-propane-1,2-diol]	5.8 nM
CCCc1cc(-c2nc(-c3cc(C)c(OCC(O)CNC(=O)CO)c(C)c3)no2)cc(C)n1 (centres unmarked) [Example 95]	0.4 nM
CCc1cc(-c2nc(-c3cc(C)c(OC[C@H](O)CNC(=O)CO)c(Cl)c3)no2)cc(C)n1 [Example 60]	0.5 nM
COc1cc(-c2noc(-c3cc(C)nc(CC(C)C)c3)n2)cc(Cl)c1OC[C@H](O)CNC(=O)CO [Example 160]	0.7 nM
CCc1cc(-c2nnc(-c3cc(C)nc(CC(C)C)c3)o2)cc(C)c1OC[C@@H](O)CNC(=O)CO [Example 180]	0.8 nM
CCCc1cc(-c2noc(-c3cc(C)nc(C(C)C)c3)n2)cc(C)c1OC[C@@H](O)CNC(=O)CO [Example 123]	0.4 nM

tested on: circulating lymphocytes in normotensive male Wistar rats; assay: Assessment of in vivo efficacy: circulating lymphocytes after oral administration; parameters: species or system rat; details: 6 h after oral administration of 10 mg/kg to normotensive male Wistar rats, compared to vehicle-treated group
Procedure: The efficacy of the compounds of Formula (I) is assessed by measuring the circulating lymphocytes after oral administration of 3 to 30 mg/kg of a compound of Formula (I) to normotensive male Wistar rats. The animals are housed in climate-controlled conditions with a 12 h-light/dark cycle, and have free access to normal rat chow and drinking water. Blood is collected before and 3, 6 and 24 h after drug administration. Full blood is subjected to hematology using Advia Hematology system (Bayer Diagnostics, Zurich, Switzerland).
All data are presented as mean±SEM. Statistical analyses are performed by analysis of variance (ANOVA) using Statistica (StatSoft) and the Student-Newman-Keuls procedure for multiple comparisons. The null hypothesis is rejected when p<0.05.
Lymphocyte counts 6 h after oral administration have been measured for 51 from 244 exemplified compounds (one being dosed at 3 mg/kg) and are in the range of −78% to −53% with an average of −67%.

Compound	Lymphocyte counts
Cc1cc(-c2nc(-c3cc(C)c(OCC(O)CNC(=O)CO)c(C)c3)no2)cc(OC(C)C)n1 (racemic) [Example 30, 2-Hydroxy-N-((RS)-2-hydroxy-3-{4-[5-(2-isopropoxy-6-methyl-pyridin-4-yl)-[1,2,4]oxadiazol-3-yl]-2,6-dimethyl-phenoxy}-propyl)-acetamide]	−73%
Cc1cc(-c2nc(-c3cc(C)c(OCC(O)CO)c(C)c3)no2)cc(CC(C)C)n1 (racemic) [Example 9, (RS)-3-{4-[5-(2-Isobutyl-6-methyl-pyridin-4-yl)-[1,2,4]oxadiazol-3-yl]-2,6-dimethyl-phenoxy}-propane-1,2-diol]	−67%
CCc1cc(-c2nc(-c3cc(C)c(OCC(O)CO)c(C)c3)no2)cc(C)n1 (racemic) [Example 8, (RS)-3-{4-[5-(2-Ethyl-6-methyl-pyridin-4-yl)-[1,2,4]oxadiazol-3-yl]-2,6-dimethyl-phenoxy}-propane-1,2-diol]	−62%
COc1cc(-c2noc(-c3cc(C)nc(CC(C)C)c3)n2)cc(C)c1OCC(O)CNC(=O)CO (racemic) [Example 159, (RS)-2-Hydroxy-N-(2-hydroxy-3-{4-[5-(2-isobutyl-6-methyl-pyridin-4-yl)-[1,2,4]oxadiazol-3-yl]-2-methoxy-6-methyl-phenoxy}-propyl)-acetamide]	−74%
